Experiments:
Assay in all cases: Test B preemergence/postemergence greenhouse plant response rating 0 to 10
Conditions in all cases: 0 to 10 scale
barnyardgrass = type: in vivo, Echinochloa crus-galli
Excerpt: (§1) Seeds of barley (Hordeum vulgare), barnyardgrass (Echinochloa crus-galli), bedstraw (Galium aparine), blackgrass (Alopecurus myosuroides), […] (Bromus secalinus), chickweed (Stellaria media), cocklebur (Xanthium pensylvanicum), corn (Zea mays), cotton (Gossypium hirsutum), crabgrass (Digitaria spp.), giant foxtail (Setaria faberii), lambsquarters (Chenopodium album), morningglory (Ipomoea hederacea), rape (Brassica napus), rice (Oryza sativa), sorghum (Sorghum bicolor), soybean (Glycine max), sugar beet (Beta vulgaris), velvetleaf (Abutilon theophrasti), wheat (Triticum aestivum), wild buckwheat (Polygonum convolvulus), and wild oat (Avena fatua) and purple nutsedge. (Cyperus rotundus) tubers were planted and treated preemergence with test chemicals dissolved in a non-phytotoxic solvent. At the same time, these crop and weed species were also treated with postemergence applications of test chemicals. Plants ranged in height from two to eighteen cm (one to four leaf stage) for postemergence treatments. Treated plants and controls were maintained in a greenhouse for twelve to sixteen days, after which all species were compared to controls and visually evaluated. […] A dash (-) response means no test result.

sugar beet = type: in vivo, Beta vulgaris
Outline: (§2)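 Postemergence treatment of plants two to eighteen cm tall ran alongside preemergence treatment of planted seed, each using compound in a non-phytotoxic solvent.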

bedstraw = type: in vivo, Galium aparine
Outline: as §2

wild buckwheat = type: in vivo, Polygonum convolvulus
Outline: as §2

barley = type: in vivo, Hordeum vulgare
Outline: as §2

cheatgrass = type: in vivo, Bromus secalinus
Outline: as §2

rape = type: in vivo, Brassica napus
Outline: as §2

morningglory = type: in vivo, Ipomoea hederacea
Excerpt: as §1

lambsquarters = type: in vivo, Chenopodium album
Outline: as §2

wild oat = type: in vivo, Avena fatua
Outline: as §2

wheat = type: in vivo, Triticum aestivum
Outline: as §2

purple nutsedge = type: in vivo, Cyperus rotundus
Excerpt: as §1

cotton = type: in vivo, Gossypium hirsutum
Excerpt: as §1

velvetleaf = type: in vivo, Abutilon theophrasti
Excerpt: as §1

sorghum = type: in vivo, Sorghum bicolor
Excerpt: as §1

crabgrass = type: in vivo, Digitaria spp.
Excerpt: as §1

corn = type: in vivo, Zea mays
Excerpt: as §1

chickweed = type: in vivo, Stellaria media
Outline: as §2

rice = type: in vivo, Oryza sativa
Excerpt: as §1

giant foxtail = type: in vivo, Setaria faberii
Excerpt: as §1

soybean = type: in vivo, Glycine max
Excerpt: as §1

cocklebur = type: in vivo, Xanthium pensylvanicum
Excerpt: as §1

blackgrass = type: in vivo, Alopecurus myosuroides
Outline: as §2

CCC(=O)Oc1cc(-c2nn3c(c2Cl)CCCC3)c(F)cc1Cl [Compound 47] was tested, and the “Plant response rating, Barnyardgrass” value (barnyardgrass; POSTEMERGENCE, Rate 50 g/ha) was 6, the “Plant response rating, Barnyardgrass” value (barnyardgrass; POSTEMERGENCE, Rate 200 g/ha) was 9 and the “Plant response rating, Barnyardgrass” value (barnyardgrass; PREEMERGENCE, Rate 50 g/ha) was 0. For the same compound, the “Plant response rating, Barnyardgrass” value (barnyardgrass; Rate 200 g/ha, PREEMERGENCE) was 0, the “Plant response rating, Sugar beet” value (sugar beet; POSTEMERGENCE, Rate 50 g/ha) was 10 and the “Plant response rating, Sugar beet” value (sugar beet; PREEMERGENCE, Rate 50 g/ha) was 1. The “Plant response rating, Sugar beet” value (sugar beet; Rate 200 g/ha, POSTEMERGENCE) was 10, the “Plant response rating, Sugar beet” value (sugar beet; Rate 200 g/ha, PREEMERGENCE) was 8 and the “Plant response rating, Bedstraw” value (bedstraw; POSTEMERGENCE, Rate 50 g/ha) was 9. The “Plant response rating, Bedstraw” value (bedstraw; POSTEMERGENCE, Rate 200 g/ha) was 10, the “Plant response rating, Bedstraw” value (bedstraw; PREEMERGENCE, Rate 50 g/ha) was 9 and the “Plant response rating, Bedstraw” value (bedstraw; Rate 200 g/ha, PREEMERGENCE) was 9. The “Plant response rating, Wild buckwheat” value (wild buckwheat; POSTEMERGENCE, Rate 50 g/ha) was 10, the “Plant response rating, Wild buckwheat” value (wild buckwheat; PREEMERGENCE, Rate 50 g/ha) was 0 and the “Plant response rating, Wild buckwheat” value (wild buckwheat; Rate 200 g/ha, POSTEMERGENCE) was 10. For the same compound, the “Plant response rating, Wild buckwheat” value (wild buckwheat; Rate 200 g/ha, PREEMERGENCE) was 9, the “Plant response rating, Barley” value (barley; POSTEMERGENCE, Rate 50 g/ha) was 5 and the “Plant response rating, Barley” value (barley; POSTEMERGENCE, Rate 200 g/ha) was 4. The “Plant response rating, Barley” value (barley; PREEMERGENCE, Rate 50 g/ha) was 0, the “Plant response rating, Barley” value (barley; Rate 200 g/ha, PREEMERGENCE) was 0 and the “Plant response rating, Cheatgrass” value (cheatgrass; POSTEMERGENCE, Rate 50 g/ha) was 4. The “Plant response rating, Cheatgrass” value (cheatgrass; POSTEMERGENCE, Rate 200 g/ha) was 4, the “Plant response rating, Cheatgrass” value (cheatgrass; PREEMERGENCE, Rate 50 g/ha) was 0 and the “Plant response rating, Cheatgrass” value (cheatgrass; Rate 200 g/ha, PREEMERGENCE) was 0. The “Plant response rating, Rape” value (rape; POSTEMERGENCE, Rate 50 g/ha) was 3, the “Plant response rating, Rape” value (rape; PREEMERGENCE, Rate 50 g/ha) was 1 and the “Plant response rating, Rape” value (rape; Rate 200 g/ha, POSTEMERGENCE) was 6. The “Plant response rating, Rape” value (rape; Rate 200 g/ha, PREEMERGENCE) was 2, the “Plant response rating, Morningglory” value (morningglory; POSTEMERGENCE, Rate 50 g/ha) was 9 and the “Plant response rating, Morningglory” value (morningglory; PREEMERGENCE, Rate 50 g/ha) was 1. The “Plant response rating, Morningglory” value (morningglory; Rate 200 g/ha, POSTEMERGENCE) was 10, the “Plant response rating, Morningglory” value (morningglory; Rate 200 g/ha, PREEMERGENCE) was 3 and the “Plant response rating, Lambsquarter” value (lambsquarters; POSTEMERGENCE, Rate 50 g/ha) was 7. The “Plant response rating, Lambsquarter” value (lambsquarters; PREEMERGENCE, Rate 50 g/ha) was 9, the “Plant response rating, Lambsquarter” value (lambsquarters; Rate 200 g/ha, POSTEMERGENCE) was 10 and the “Plant response rating, Lambsquarter” value (lambsquarters; Rate 200 g/ha, PREEMERGENCE) was 9. For the same compound, the “Plant response rating, Wild oat” value (wild oat; POSTEMERGENCE, Rate 50 g/ha) was 3, the “Plant response rating, Wild oat” value (wild oat; PREEMERGENCE, Rate 50 g/ha) was 0 and the “Plant response rating, Wild oat” value (wild oat; Rate 200 g/ha, POSTEMERGENCE) was 3. For the same compound, the “Plant response rating, Wheat” value (wheat; POSTEMERGENCE, Rate 50 g/ha) was 3, the “Plant response rating, Wheat” value (wheat; PREEMERGENCE, Rate 50 g/ha) was 0 and the “Plant response rating, Wheat” value (wheat; Rate 200 g/ha, POSTEMERGENCE) was 6. For the same compound, the “Plant response rating, Wheat” value (wheat; Rate 200 g/ha, PREEMERGENCE) was 2, the “Plant response rating, Nutsedge” value (purple nutsedge; POSTEMERGENCE, Rate 50 g/ha) was 2 and the “Plant response rating, Nutsedge” value (purple nutsedge; PREEMERGENCE, Rate 50 g/ha) was 0. For the same compound, the “Plant response rating, Nutsedge” value (purple nutsedge; Rate 200 g/ha, POSTEMERGENCE) was 8, the “Plant response rating, Nutsedge” value (purple nutsedge; Rate 200 g/ha, PREEMERGENCE) was 0 and the “Plant response rating, Cotton” value (cotton; POSTEMERGENCE, Rate 50 g/ha) was 10. For the same compound, the “Plant response rating, Cotton” value (cotton; POSTEMERGENCE, Rate 200 g/ha) was 10, the “Plant response rating, Cotton” value (cotton; PREEMERGENCE, Rate 50 g/ha) was 0 and the “Plant response rating, Cotton” value (cotton; Rate 200 g/ha, PREEMERGENCE) was 2. For the same compound, the “Plant response rating, Velvetleaf” value (velvetleaf; POSTEMERGENCE, Rate 50 g/ha) was 8, the “Plant response rating, Velvetleaf” value (velvetleaf; PREEMERGENCE, Rate 50 g/ha) was 2 and the “Plant response rating, Velvetleaf” value (velvetleaf; Rate 200 g/ha, POSTEMERGENCE) was 9. The “Plant response rating, Velvetleaf” value (velvetleaf; Rate 200 g/ha, PREEMERGENCE) was 4, the “Plant response rating, Sorghum” value (sorghum; POSTEMERGENCE, Rate 50 g/ha) was 3 and the “Plant response rating, Sorghum” value (sorghum; PREEMERGENCE, Rate 50 g/ha) was 0. The “Plant response rating, Sorghum” value (sorghum; Rate 200 g/ha, POSTEMERGENCE) was 4, the “Plant response rating, Sorghum” value (sorghum; Rate 200 g/ha, PREEMERGENCE) was 0 and the “Plant response rating, Crabgrass” value (crabgrass; POSTEMERGENCE, Rate 50 g/ha) was 3. For the same compound, the “Plant response rating, Crabgrass” value (crabgrass; POSTEMERGENCE, Rate 200 g/ha) was 6, the “Plant response rating, Crabgrass” value (crabgrass; PREEMERGENCE, Rate 50 g/ha) was 0 and the “Plant response rating, Crabgrass” value (crabgrass; Rate 200 g/ha, PREEMERGENCE) was 0. For the same compound, the “Plant response rating, Corn” value (corn; POSTEMERGENCE, Rate 50 g/ha) was 4, the “Plant response rating, Corn” value (corn; POSTEMERGENCE, Rate 200 g/ha) was 5 and the “Plant response rating, Corn” value (corn; PREEMERGENCE, Rate 50 g/ha) was 0. The “Plant response rating, Corn” value (corn; Rate 200 g/ha, PREEMERGENCE) was 0, the “Plant response rating, Chickweed” value (chickweed; POSTEMERGENCE, Rate 50 g/ha) was 9 and the “Plant response rating, Chickweed” value (chickweed; POSTEMERGENCE, Rate 200 g/ha) was 9. The “Plant response rating, Chickweed” value (chickweed; PREEMERGENCE, Rate 50 g/ha) was 0, the “Plant response rating, Chickweed” value (chickweed; Rate 200 g/ha, PREEMERGENCE) was 2 and the “Plant response rating, Rice” value (rice; POSTEMERGENCE, Rate 50 g/ha) was 4. The “Plant response rating, Rice” value (rice; PREEMERGENCE, Rate 50 g/ha) was 0, the “Plant response rating, Rice” value (rice; Rate 200 g/ha, POSTEMERGENCE) was 5 and the “Plant response rating, Rice” value (rice; Rate 200 g/ha, PREEMERGENCE) was 0. For the same compound, the “Plant response rating, Giant foxtail” value (giant foxtail; POSTEMERGENCE, Rate 50 g/ha) was 4, the “Plant response rating, Giant foxtail” value (giant foxtail; PREEMERGENCE, Rate 50 g/ha) was 0 and the “Plant response rating, Giant foxtail” value (giant foxtail; Rate 200 g/ha, POSTEMERGENCE) was 6. The “Plant response rating, Giant foxtail” value (giant foxtail; Rate 200 g/ha, PREEMERGENCE) was 5, the “Plant response rating, Soybean” value (soybean; POSTEMERGENCE, Rate 50 g/ha) was 7 and the “Plant response rating, Soybean” value (soybean; PREEMERGENCE, Rate 50 g/ha) was 0. The “Plant response rating, Soybean” value (soybean; Rate 200 g/ha, POSTEMERGENCE) was 7, the “Plant response rating, Soybean” value (soybean; Rate 200 g/ha, PREEMERGENCE) was 0 and the “Plant response rating, Cocklebur” value (cocklebur; POSTEMERGENCE, Rate 50 g/ha) was 6. The “Plant response rating, Cocklebur” value (cocklebur; POSTEMERGENCE, Rate 200 g/ha) was 9, the “Plant response rating, Cocklebur” value (cocklebur; PREEMERGENCE, Rate 50 g/ha) was 2 and the “Plant response rating, Cocklebur” value (cocklebur; Rate 200 g/ha, PREEMERGENCE) was 3. For the same compound, the “Plant response rating, Blackgrass” value (blackgrass; POSTEMERGENCE, Rate 50 g/ha) was 4, the “Plant response rating, Blackgrass” value (blackgrass; POSTEMERGENCE, Rate 200 g/ha) was 8 and the “Plant response rating, Blackgrass” value (blackgrass; PREEMERGENCE, Rate 50 g/ha) was 2. The “Plant response rating, Blackgrass” value (blackgrass; Rate 200 g/ha, PREEMERGENCE) was 3.

Source: patent US6358885B1, “Substituted phenylheterocyclic herbicides” (Mississippi State University, priority 1992, dated 2002)
